Several values for one entry are separate records, joined by “and”; a condition that tells them apart may be missing. Equal values may be shown once. Read-outs that look alike come from different tables or passages of the source.
Columns and labels:
[1] = test system: HCV RNA in stably HCV RNA-replicating cell line AVA5; test: Primary in vitro anti-HCV screen: intracellular HCV RNA levels in AVA5 cells (branched DNA assay); format: cell-based, Hepatitis C virus; settings: for HCV % Control / HCV Copies/ml: AVA5, duplicate cultures
Method: Primary in vitro anti-HCV screen. The antiviral activity of test compounds were assayed in the stably HCV RNA-replicating cell line, AVA5, derived by transfection of the human hepatoblastoma cell line, Huh7 (Blight, et al., 2000, Science 290: 1972). The test compounds were added to dividing cultures once daily for three days. The media was changed with each addition of the compounds. […] Intracellular HCV RNA levels and cytotoxicity are assessed 24 hours after the last dose of compound.
(§1) Assays were conducted using a single dose of test compound. Duplicate cultures for HCV RNA levels (on 48-well plates) and triplicate cultures for cytotoxicity (on 96-well plates) are used.
(§2) Intracellular HCV RNA levels were measured using a commercial assay (Veresant®, Bayer Diagnostics, Inc. Ross, et al. (2002) J. Virol. Meth. 101:159–168, Quantitation of hepatitic C virus RNA by third generation branched DNA-based signal amplification assay). Cytotoxicity was measured using an established neutral red dye uptake assay (Korba, B. E. and J. L. Gerin. 1992. Use of a standardized cell culture assay to determine activities of nucleoside analogs against hepatitis B virus relication. Antivir. Res. 19:55–70). HCV RNA levels in the treated cultures are expressed as a percentage of the mean levels of RNA detected in untreated cultures. A level of 30% or less, HCV RNA relative to control cultures may be considered to be a positive antiviral effect. A level of 50% or less, neutral red dye uptake relative to control cultures may be considered to be a cytotoxic effect.

[2] = test system: HCV RNA-replicating cell line AVA5; test: Normalized Viral Assay; format: cell-based, Hepatitis C virus
Method: (§3) Primary in vitro anti-HCV screen. The antiviral activity of test compounds were assayed in the stably HCV RNA-replicating cell line, AVA5, derived by transfection of the human hepatoblastoma cell line, Huh7 (Blight, et al., 2000, Science 290: 1972). The test compounds were added to dividing cultures once daily for three days. The media was changed with each addition of the compounds. Cultures generally start the assay at 30–50% confluence and reach confluence during the last day of treatment.

[3] = test system: HCV replicons in AVA5 cell cultures; test: Secondary in vitro anti-HCV dose-response assay: intracellular HCV RNA; parameters: Intracellular HCV RNA Levels: dose or concentration left out as unconfirmed; settings: for Intracellular HCV RNA Levels: normalized to β-actin RNA
Method: (§4) Dividing cultures of AVA5 cells are treated once daily for three days (media is changed with each addition of compound) with 4 concentrations of test compound (2 cultures per concentration). […] Intracellular HCV RNA levels and cytotoxicity are assessed 24 hours following the last treatment as described for the primary assays. The 50% and 90% effective antiviral concentrations (EC50, EC90) and the 50% cytotoxic concentrations (CC50) are calculated and used to generate Selectivity Indexes (S.I., CC50/EC50). An S.I of 10, or greater, may be considered to be a selective antiviral effect.
(§5) The values presented in Table 6 were calculated by linear regression analysis using data from all treated cultures. The standard deviation was calculated using the error of regression generated from the linear regression analysis.
Analysis of intracellular HCV RNA was performed 24 hours following the final treatment. A total of […] were treated a each concentration for each compound. HCV RNA levels were normalized to the level of β-actin RNA in each individual sample.

AVA5 cells = test: Secondary dose-response assay: cytotoxicity (CC50)
Method: as §4, §5

[4] = test system: AVA5 cell line (derived from human hepatoblastoma cell line Huh7); test: Primary screen cytotoxicity: neutral red dye uptake; format: cell-based; settings: AVA5
Method: as §3, §1, §2

AVA5 cell line [5] = test: MTS Cell Viability
AVA5 cell line [6] = test: ATP Cell Viability
[7] = 10 μM, HCV RNA as percentage of untreated cultures
[8] = 10 μM, once daily for three days
[9] = AVA5, HCV RNA, linear regression
[10] = AVA5, values for α-interferon in IU/ml

| Compound | HCV % Control [1, 7] | Normalized Viral Assay ([2]; 1 μM) | Normalized Viral Assay ([2]; 5 μM) | Normalized Viral Assay ([2]; 10 μM) | MTS Cell Viability (AVA5 cell line [5]; 5 μM) | MTS Cell Viability (AVA5 cell line [5]; 10 μM) | ATP Cell Viability (AVA5 cell line [6]; 5 μM) | ATP Cell Viability (AVA5 cell line [6]; 10 μM) | MTS Cell Viability (AVA5 cell line [5]; 1 μM) | ATP Cell Viability (AVA5 cell line [6]; 1 μM) | other results |
| --- | --- | --- | --- | --- | --- | --- | --- | --- | --- | --- | --- |
| O=c1oc2ccccc2c(Sc2ccc(Br)cc2)c1Sc1ccc(F)cc1 [VQ_412] | 54 % Control and 49 % Control | – | – | – | – | – | – | – | – | – | HCV Copies/ml [1, 8]: 726473 Copies/ml and 656755 Copies/ml |
| Cc1ccc(Sc2c(Sc3ccc(F)cc3Cl)c3ccccc3oc2=O)cc1C [VQ_437] | 41 % Control and 38 % Control | – | – | – | – | – | – | – | – | – | HCV Copies/ml [1, 8]: 556515 Copies/ml and 507191 Copies/ml |
| Cc1cc(C)cc(Sc2c(Sc3cccc(Cl)c3)c3ccccc3oc2=O)c1 [VQ_468] | 23 % Control and 24 % Control | – | – | – | – | – | – | – | – | – | HCV Copies/ml [1, 8]: 306102 Copies/ml and 318777 Copies/ml |
| Cc1cc(C)cc(Sc2c(Sc3ccc(F)cc3Cl)c3ccccc3oc2=O)c1 [VQ_473] | 39 % Control | – | – | – | – | – | – | – | – | – | HCV Copies/ml [1, 8]: 529743 Copies/ml and 523506 Copies/ml |
| O=c1oc2ccccc2c(Sc2ccc(Br)cc2)c1Sc1ccc(F)cc1 [compound 412] | – | 55.65 | 28.13 | 16.13 | – | – | – | – | – | – | – |
| Cc1ccc(Sc2c(Sc3ccc(F)cc3Cl)c3ccccc3oc2=O)cc1C [compound 437] | – | 59.33 | 34.83 | 20.41 | – | – | – | – | – | – | – |
| Cc1cc(C)cc(Sc2c(Sc3cccc(Cl)c3)c3ccccc3oc2=O)c1 [compound 468] | – | 72.14 | 35.09 | 18.06 | – | – | – | – | – | – | S.I. (CC50/EC90) [3]: >250; Intracellular HCV RNA Levels [3]; 10: 1317765 ± 55645 genomic copies/cell; Intracellular HCV RNA Levels [3]; 30: 473805 ± 21625 genomic copies/cell; Intracellular HCV RNA Levels [3]; 100: 194410 ± 7620 genomic copies/cell; Intracellular HCV RNA Levels [3]; 300: 56535 ± 8005 genomic copies/cell; EC50 [3, 9]: 1.2 ± 0.1 µM; EC90 [3, 9]: 8.3 ± 0.6 µM; CC50 (AVA5 cells): > 300 µM |
| Cc1cc(C)cc(Sc2c(Sc3ccc(F)cc3Cl)c3ccccc3oc2=O)c1 [compound 473] | – | 68.16 | 40.79 | 12.45 | – | – | – | – | – | – | – |
| COc1ccc2oc(=O)cc(Sc3ccccc3F)c2c1 [compound 824] | – | – | 52.29 | 17.28 | 94.56 | 84.15 | 91.28 | 75.61 | – | – | Neutral Red % Control ([4]; 10 μM, dye uptake relative to untreated cultures, listed as VQ_824): 99 % Control and 102 % Control; Neutral Red O.D. ([4]; 10 μM, listed as VQ_824): 2.214 O.D. and 2.274 O.D.; HCV % Control ([1]; 10 μM, HCV RNA as percentage of untreated cultures, listed as VQ_824): 101 % Control and 90 % Control; HCV Copies/ml ([1]; 10 μM, once daily for three days, listed as VQ_824): 1357786 Copies/ml and 1211659 Copies/ml |
| COc1ccc2oc(=O)cc(Sc3ccc(F)cc3F)c2c1 [compound 830] | – | 87.63 | 46.87 | 40.35 | 101.06 | 98.85 | 97.11 | 104.41 | 112.38 | 106.44 | – |
| O=c1cc(Sc2ccccc2Cl)c2cc(F)ccc2o1 [compound 894] | – | 35.65 | 9.04 | 6.84 | 83.91 | 81.24 | 109.42 | 58.26 | 104.53 | 113.25 | Neutral Red % Control ([4]; 10 μM, dye uptake relative to untreated cultures, listed as VQ_894): 100 % Control and 101 % Control; Neutral Red O.D. ([4]; 10 μM, listed as VQ_894): 2.234 O.D. and 2.257 O.D.; HCV % Control ([1]; 10 μM, HCV RNA as percentage of untreated cultures, listed as VQ_894): 95 % Control and 84 % Control; HCV Copies/ml ([1]; 10 μM, once daily for three days, listed as VQ_894): 1277826 Copies/ml and 1128325 Copies/ml |
| O=c1cc(Sc2ccc(F)cc2Cl)c2cc(F)ccc2o1 [compound 899] | – | 40.10 | 10.66 | 10.32 | 90.22 | 85.37 | 112.43 | 105.60 | 106.10 | 102.77 | Neutral Red % Control ([4]; 10 μM, dye uptake relative to untreated cultures, listed as VQ_899): 100 % Control and 102 % Control; Neutral Red O.D. ([4]; 10 μM, listed as VQ_899): 2.237 O.D. and 2.286 O.D.; HCV % Control ([1]; 10 μM, HCV RNA as percentage of untreated cultures, listed as VQ_899): 66 % Control and 65 % Control; HCV Copies/ml ([1]; 10 μM, once daily for three days, listed as VQ_899): 886875 Copies/ml and 873484 Copies/ml |
| O=c1cc(Sc2cc(Cl)ccc2Cl)c2cc(F)ccc2o1 [compound 901] | 63 % Control | 24.87 | 12.80 | 8.34 | 97.37 | 86.10 | 106.63 | 79.01 | 107.32 | 105.62 | Neutral Red % Control ([4]; 10 μM, dye uptake relative to untreated cultures, listed as VQ_901): 102 % Control and 100 % Control; Neutral Red O.D. ([4]; 10 μM, listed as VQ_901): 2.287 O.D. and 2.241 O.D.; HCV Copies/ml ([1]; 10 μM, once daily for three days, listed as VQ_901): 851852 Copies/ml and 846803 Copies/ml |
| O=c1cc(Sc2ccccc2F)c2cc(F)ccc2o1 [compound 904] | – | 50.52 | 37.87 | 9.27 | 108.04 | 86.22 | 100.32 | 74.11 | 116.41 | 107.54 | Neutral Red % Control ([4]; 10 μM, dye uptake relative to untreated cultures, listed as VQ_904): 100 % Control and 101 % Control; Neutral Red O.D. ([4]; 10 μM, listed as VQ_904): 2.237 O.D. and 2.255 O.D.; HCV % Control ([1]; 10 μM, HCV RNA as percentage of untreated cultures, listed as VQ_904): 79 % Control and 75 % Control; HCV Copies/ml ([1]; 10 μM, once daily for three days, listed as VQ_904): 1072174 Copies/ml and 1013181 Copies/ml |
| α-interferon | – | – | – | – | – | – | – | – | – | – | Neutral Red % Control ([4]; 10 IU/ml, listed as rHu α-IFN): 99 % Control and 103 % Control; Neutral Red O.D. ([4]; 10 IU/ml, listed as rHu α-IFN): 2.217 O.D. and 2.291 O.D.; Intracellular HCV RNA Levels ([3]; 1.0 IU/ml): 1169765 ± 37135 genomic copies/cell; Intracellular HCV RNA Levels ([3]; 3.0 IU/ml): 329605 ± 26035 genomic copies/cell; Intracellular HCV RNA Levels ([3]; 10 IU/ml): 103060 ± 14470 genomic copies/cell; EC50 [3, 10]: 1.8 ± 0.2^1 IU/ml; EC90 [3, 10]: 8.2 ± 0.6^1 IU/ml; S.I. (CC50/EC90) ([3]; selectivity index, AVA5): >5556; HCV % Control ([1]; 10 IU/ml, listed as rHu α-IFN): 5 % Control and 6 % Control; HCV Copies/ml ([1]; 10 IU/ml, listed as rHu α-IFN): 71460 Copies/ml and 85467 Copies/ml; effect on HCV RNA (treatment controls, in words) ([1]; at the control concentrations used): induced significant depressions of HCV RNA replication; approximate EC90 ([1]; positive antiviral control, no cytotoxicity): ~10 IU/ml; CC50 (AVA5 cells; [10]): >10000^1,2 IU/ml |
